In article PMC8800111 (The Journal of Biological Chemistry, 2021):

Assays:
Type in all cases: cell-based
[1] = target: proteins of U3A human fibrosarcoma cells (4462 proteins detected) (Homo sapiens, UniProt O00231); settings: protein PSMD11; U3A cells
[2] = target: proteins of U3A human fibrosarcoma cells (4462 proteins detected) (Homo sapiens, UniProt O14646); settings: protein CHD1, U3A cells
[3] = target: proteins of U3A human fibrosarcoma cells (4462 proteins detected) (Homo sapiens, UniProt O60684); settings: protein KPNA6; U3A cells
[4] = target: proteins of U3A human fibrosarcoma cells (4462 proteins detected) (Homo sapiens, UniProt O75147); settings: protein OBSL1, U3A cells
proteins of U3A human fibrosarcoma cells (4462 proteins detected) (Homo sapiens, UniProt O75147), sequence (O75147 whole entry): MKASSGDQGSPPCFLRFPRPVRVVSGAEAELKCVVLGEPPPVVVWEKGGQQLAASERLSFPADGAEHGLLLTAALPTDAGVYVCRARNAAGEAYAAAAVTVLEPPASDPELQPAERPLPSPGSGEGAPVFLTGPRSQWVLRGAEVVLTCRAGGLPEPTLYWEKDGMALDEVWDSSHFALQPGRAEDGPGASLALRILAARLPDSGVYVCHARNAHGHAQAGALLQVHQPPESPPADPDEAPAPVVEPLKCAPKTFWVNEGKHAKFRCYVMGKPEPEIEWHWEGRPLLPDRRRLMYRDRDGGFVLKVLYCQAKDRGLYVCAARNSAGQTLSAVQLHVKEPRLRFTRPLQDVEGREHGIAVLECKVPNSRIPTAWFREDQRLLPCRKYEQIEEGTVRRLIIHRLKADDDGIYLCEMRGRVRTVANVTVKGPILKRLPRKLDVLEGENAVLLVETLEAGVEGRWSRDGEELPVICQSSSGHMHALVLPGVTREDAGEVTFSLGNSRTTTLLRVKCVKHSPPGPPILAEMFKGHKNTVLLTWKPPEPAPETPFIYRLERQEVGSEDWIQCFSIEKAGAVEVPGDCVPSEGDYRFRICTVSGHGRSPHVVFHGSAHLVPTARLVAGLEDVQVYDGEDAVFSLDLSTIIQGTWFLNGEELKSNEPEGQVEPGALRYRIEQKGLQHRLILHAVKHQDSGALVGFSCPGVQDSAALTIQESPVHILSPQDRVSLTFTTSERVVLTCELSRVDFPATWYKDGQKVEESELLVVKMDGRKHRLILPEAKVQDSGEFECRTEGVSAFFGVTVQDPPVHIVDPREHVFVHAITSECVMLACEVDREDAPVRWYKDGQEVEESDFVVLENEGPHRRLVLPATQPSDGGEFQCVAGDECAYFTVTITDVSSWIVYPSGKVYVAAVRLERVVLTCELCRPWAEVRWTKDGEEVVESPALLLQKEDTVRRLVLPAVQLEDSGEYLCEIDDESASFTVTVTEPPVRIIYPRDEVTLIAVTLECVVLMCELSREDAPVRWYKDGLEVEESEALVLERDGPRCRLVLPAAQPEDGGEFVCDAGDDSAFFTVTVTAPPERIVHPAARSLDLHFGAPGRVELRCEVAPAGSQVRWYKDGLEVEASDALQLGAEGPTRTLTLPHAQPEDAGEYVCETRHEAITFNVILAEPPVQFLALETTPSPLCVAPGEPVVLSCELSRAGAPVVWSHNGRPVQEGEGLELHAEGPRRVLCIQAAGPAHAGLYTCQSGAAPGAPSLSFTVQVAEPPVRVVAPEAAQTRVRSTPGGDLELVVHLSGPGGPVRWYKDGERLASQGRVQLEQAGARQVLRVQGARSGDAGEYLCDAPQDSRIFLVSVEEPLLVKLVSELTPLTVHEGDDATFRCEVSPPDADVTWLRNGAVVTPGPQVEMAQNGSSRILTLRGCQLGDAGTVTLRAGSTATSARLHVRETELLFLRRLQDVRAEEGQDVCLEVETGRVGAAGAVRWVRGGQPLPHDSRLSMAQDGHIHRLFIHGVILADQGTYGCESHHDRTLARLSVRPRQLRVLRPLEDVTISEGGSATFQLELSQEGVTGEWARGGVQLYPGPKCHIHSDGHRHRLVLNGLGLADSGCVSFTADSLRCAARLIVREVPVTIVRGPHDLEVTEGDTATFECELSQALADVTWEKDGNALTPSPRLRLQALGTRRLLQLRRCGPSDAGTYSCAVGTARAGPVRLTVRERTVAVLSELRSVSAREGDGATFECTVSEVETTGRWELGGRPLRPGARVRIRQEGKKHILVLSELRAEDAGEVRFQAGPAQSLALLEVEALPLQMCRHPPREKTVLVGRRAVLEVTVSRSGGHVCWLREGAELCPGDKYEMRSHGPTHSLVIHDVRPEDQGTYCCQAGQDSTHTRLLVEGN

[5] = target: proteins of U3A human fibrosarcoma cells (4462 proteins detected) (Homo sapiens, UniProt O75396); settings: protein SEC22B; U3A cells
[6] = target: proteins of U3A human fibrosarcoma cells (4462 proteins detected) (Homo sapiens, UniProt O76061); settings: protein STC2; U3A cells
proteins of U3A human fibrosarcoma cells (4462 proteins detected) (Homo sapiens, UniProt O76061), sequence (O76061 25-302): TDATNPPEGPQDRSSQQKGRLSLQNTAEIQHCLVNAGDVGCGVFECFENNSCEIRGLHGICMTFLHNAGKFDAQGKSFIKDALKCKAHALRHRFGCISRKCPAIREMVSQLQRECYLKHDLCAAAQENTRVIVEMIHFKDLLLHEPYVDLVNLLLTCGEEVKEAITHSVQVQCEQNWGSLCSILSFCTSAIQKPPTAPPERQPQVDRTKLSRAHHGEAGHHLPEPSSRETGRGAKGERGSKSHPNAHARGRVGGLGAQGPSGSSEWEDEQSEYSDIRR

[7] = target: proteins of U3A human fibrosarcoma cells (4462 proteins detected) (Homo sapiens, UniProt O94992); settings: protein HEXIM1, U3A cells
[8] = target: proteins of U3A human fibrosarcoma cells (4462 proteins detected) (Homo sapiens, UniProt P00374); settings: 10 μM, 2 h
proteins of U3A human fibrosarcoma cells (4462 proteins detected) (Homo sapiens, UniProt P00374), sequence (P00374 whole entry): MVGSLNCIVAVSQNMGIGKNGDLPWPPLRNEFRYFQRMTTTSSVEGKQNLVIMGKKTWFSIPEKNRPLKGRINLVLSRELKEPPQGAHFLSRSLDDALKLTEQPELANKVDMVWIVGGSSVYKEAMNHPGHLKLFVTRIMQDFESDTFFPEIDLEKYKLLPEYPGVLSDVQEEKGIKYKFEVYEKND

[9] = target: proteins of U3A human fibrosarcoma cells (4462 proteins detected) (Homo sapiens, UniProt P17706); settings: protein PTPN2, U3A cells
[10] = target: proteins of U3A human fibrosarcoma cells (4462 proteins detected) (Homo sapiens, UniProt P40227); settings: protein CCT6A; U3A cells
[11] = target: proteins of U3A human fibrosarcoma cells (4462 proteins detected) (Homo sapiens, UniProt P49321); settings: protein NASP, U3A cells
[12] = target: proteins of U3A human fibrosarcoma cells (4462 proteins detected) (Homo sapiens, UniProt P49840); settings: protein GSK3A; U3A cells
proteins of U3A human fibrosarcoma cells (4462 proteins detected) (Homo sapiens, UniProt P49840), sequence (P49840 whole entry): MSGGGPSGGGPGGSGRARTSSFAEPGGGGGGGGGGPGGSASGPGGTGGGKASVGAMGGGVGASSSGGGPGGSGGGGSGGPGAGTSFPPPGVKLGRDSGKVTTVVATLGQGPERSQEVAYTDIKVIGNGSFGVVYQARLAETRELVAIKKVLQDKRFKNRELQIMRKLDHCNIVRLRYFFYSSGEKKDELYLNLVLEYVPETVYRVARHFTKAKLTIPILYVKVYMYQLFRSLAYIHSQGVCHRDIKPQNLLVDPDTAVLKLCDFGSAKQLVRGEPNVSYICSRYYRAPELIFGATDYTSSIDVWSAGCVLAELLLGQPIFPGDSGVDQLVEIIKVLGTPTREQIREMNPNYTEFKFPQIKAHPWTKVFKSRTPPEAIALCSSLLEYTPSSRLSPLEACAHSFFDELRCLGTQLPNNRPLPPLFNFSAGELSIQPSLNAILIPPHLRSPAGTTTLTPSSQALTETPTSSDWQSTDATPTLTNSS

[13] = target: proteins of U3A human fibrosarcoma cells (4462 proteins detected) (Homo sapiens, UniProt P51946); settings: protein CCNH; U3A cells
[14] = target: proteins of U3A human fibrosarcoma cells (4462 proteins detected) (Homo sapiens, UniProt Q07020); settings: protein RPL18; soluble abundance after heat, U3A cells
[15] = target: proteins of U3A human fibrosarcoma cells (4462 proteins detected) (Homo sapiens, UniProt Q14839); settings: protein CHD4; soluble abundance after heat, U3A cells
[16] = target: proteins of U3A human fibrosarcoma cells (4462 proteins detected) (Homo sapiens, UniProt Q16626); settings: protein MEA1, U3A cells
proteins of U3A human fibrosarcoma cells (4462 proteins detected) (Homo sapiens, UniProt Q16626), sequence (Q16626 whole entry): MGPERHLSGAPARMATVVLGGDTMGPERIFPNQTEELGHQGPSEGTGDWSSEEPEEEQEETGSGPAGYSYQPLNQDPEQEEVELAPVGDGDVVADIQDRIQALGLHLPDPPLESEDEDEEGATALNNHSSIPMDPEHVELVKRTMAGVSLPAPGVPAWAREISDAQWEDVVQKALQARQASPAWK

[17] = target: proteins of U3A human fibrosarcoma cells (4462 proteins detected) (Homo sapiens, UniProt Q86TS9); settings: protein MRPL52; soluble abundance after heat, U3A cells
[18] = target: proteins of U3A human fibrosarcoma cells (4462 proteins detected) (Homo sapiens, UniProt Q8NB16); settings: protein MLKL; U3A, 10 μM, 2 h
[19] = target: proteins of U3A human fibrosarcoma cells (4462 proteins detected) (Homo sapiens, UniProt Q8NCN4); settings: protein RNF169, U3A cells
[20] = target: proteins of U3A human fibrosarcoma cells (4462 proteins detected) (Homo sapiens, UniProt Q8NI22); settings: protein MCFD2, U3A cells
proteins of U3A human fibrosarcoma cells (4462 proteins detected) (Homo sapiens, UniProt Q8NI22), sequence (Q8NI22 27-146): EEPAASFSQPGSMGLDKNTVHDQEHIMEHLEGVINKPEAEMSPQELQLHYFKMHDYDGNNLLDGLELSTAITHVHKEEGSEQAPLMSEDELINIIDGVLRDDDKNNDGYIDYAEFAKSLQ

[21] = target: proteins of U3A human fibrosarcoma cells (4462 proteins detected) (Homo sapiens, UniProt Q96DH6); settings: protein MSI2; U3A, 10 μM, 2 h
[22] = target: proteins of U3A human fibrosarcoma cells (4462 proteins detected) (Homo sapiens, UniProt Q96K76); settings: protein USP47; U3A cells
[23] = target: proteins of U3A human fibrosarcoma cells (4462 proteins detected) (Homo sapiens, UniProt Q99848); settings: protein EBNA1BP2; U3A cells
[24] = target: proteins of U3A human fibrosarcoma cells (4462 proteins detected) (Homo sapiens, UniProt Q9BVW5); settings: protein TIPIN, U3A cells
[25] = target: proteins of U3A human fibrosarcoma cells (4462 proteins detected) (Homo sapiens, UniProt Q9H0A8); settings: protein COMMD4; U3A cells
[26] = target: proteins of U3A human fibrosarcoma cells (4462 proteins detected) (Homo sapiens, UniProt Q9H7Z7); settings: protein PTGES2, U3A cells
proteins of U3A human fibrosarcoma cells (4462 proteins detected) (Homo sapiens, UniProt Q9H7Z7), sequence (Q9H7Z7 whole entry): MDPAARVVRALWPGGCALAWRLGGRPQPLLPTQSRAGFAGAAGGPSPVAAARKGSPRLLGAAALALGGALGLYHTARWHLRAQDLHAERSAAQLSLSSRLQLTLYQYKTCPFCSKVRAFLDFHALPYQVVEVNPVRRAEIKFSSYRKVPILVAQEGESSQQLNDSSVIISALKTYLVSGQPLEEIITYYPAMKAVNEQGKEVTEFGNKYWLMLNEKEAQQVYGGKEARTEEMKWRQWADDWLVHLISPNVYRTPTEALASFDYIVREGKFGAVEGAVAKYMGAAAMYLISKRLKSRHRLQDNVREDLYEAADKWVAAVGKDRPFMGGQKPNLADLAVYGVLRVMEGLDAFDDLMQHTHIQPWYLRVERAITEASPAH

[27] = target: proteins of U3A human fibrosarcoma cells (4462 proteins detected) (Homo sapiens, UniProt Q9H944); settings: protein MED20; U3A cells
proteins of U3A human fibrosarcoma cells (4462 proteins detected) (Homo sapiens, UniProt Q9H944), sequence (Q9H944 whole entry): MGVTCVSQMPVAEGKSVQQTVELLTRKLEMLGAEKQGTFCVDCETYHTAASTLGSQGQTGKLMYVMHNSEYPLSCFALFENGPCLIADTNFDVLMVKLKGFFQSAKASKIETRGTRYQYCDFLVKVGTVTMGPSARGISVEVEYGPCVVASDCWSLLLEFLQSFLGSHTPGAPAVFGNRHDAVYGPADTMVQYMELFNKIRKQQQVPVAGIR

[28] = target: proteins of U3A human fibrosarcoma cells (4462 proteins detected) (Homo sapiens, UniProt Q9NRZ9); settings: protein HELLS; soluble abundance after heat, U3A cells
[29] = target: proteins of U3A human fibrosarcoma cells (4462 proteins detected) (Homo sapiens, UniProt Q9NY33); settings: protein DPP3, U3A cells
[30] = target: proteins of U3A human fibrosarcoma cells (4462 proteins detected) (Homo sapiens, UniProt Q9Y5N6); settings: protein ORC6; U3A cells
proteins of U3A human fibrosarcoma cells (4462 proteins detected) (Homo sapiens, UniProt Q9Y5N6), sequence (Q9Y5N6 whole entry): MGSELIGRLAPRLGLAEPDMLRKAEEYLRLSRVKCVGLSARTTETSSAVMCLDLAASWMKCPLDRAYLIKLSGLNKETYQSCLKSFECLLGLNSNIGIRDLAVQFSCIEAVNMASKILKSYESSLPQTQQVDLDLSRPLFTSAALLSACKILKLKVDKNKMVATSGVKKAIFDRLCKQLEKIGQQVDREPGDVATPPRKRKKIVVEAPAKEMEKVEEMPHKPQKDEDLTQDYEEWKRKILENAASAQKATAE

proteins of U3A human fibrosarcoma cells (4462 proteins detected) (Homo sapiens, UniProt O00231), sequence (O00231 whole entry): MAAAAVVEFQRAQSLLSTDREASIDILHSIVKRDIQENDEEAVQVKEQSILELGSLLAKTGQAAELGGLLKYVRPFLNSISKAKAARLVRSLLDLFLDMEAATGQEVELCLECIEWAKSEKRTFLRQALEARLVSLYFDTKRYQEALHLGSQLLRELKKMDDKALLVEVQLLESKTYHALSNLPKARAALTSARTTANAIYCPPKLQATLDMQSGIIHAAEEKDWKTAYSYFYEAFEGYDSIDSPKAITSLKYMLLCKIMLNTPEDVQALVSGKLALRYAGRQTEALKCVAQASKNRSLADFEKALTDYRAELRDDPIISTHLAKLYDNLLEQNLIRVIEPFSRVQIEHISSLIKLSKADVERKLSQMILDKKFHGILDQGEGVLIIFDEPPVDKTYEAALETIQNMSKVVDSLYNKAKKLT

For `CCc1nc(N)nc(N)c1-c1ccc(Cl)cc1` [pyrimethamine], the “Log2 (PYR/DMSO)” value [1] was 0.17, the “Log2 (PYR/DMSO)” value [2] was -0.04 and the “Log2 (PYR/DMSO)” value [3] was 0.24. The “Log2 (PYR/DMSO)” value [4] was -0.04, the “Log2 (PYR/DMSO)” value [5] was 0.21 and the “Log2 (PYR/DMSO)” value [6] was 0.16. For the same compound, the “Log2 (PYR/DMSO)” value [7] was -0.04, the “increased abundance of DHFR in the soluble fraction” value ([8]; U3A cells, vs vehicle) was 1.7 fold and the “Log2 (PYR/DMSO), DHFR” value ([8]; protein DHFR, U3A) was 0.80. For the same compound, the “Log2 (PYR/DMSO)” value [9] was -0.04, the “Log2 (PYR/DMSO)” value [10] was 0.20 and the “Log2 (PYR/DMSO)” value [11] was -0.04. For the same compound, the “Log2 (PYR/DMSO)” value [12] was 0.16, the “Log2 (PYR/DMSO)” value [13] was 0.16 and the “Log2 (PYR/DMSO)” value [14] was 0.15. For the same compound, the “Log2 (PYR/DMSO)” value [15] was 0.14, the “Log2 (PYR/DMSO)” value [16] was -0.04 and the “Log2 (PYR/DMSO)” value [17] was 0.15. The “Log2 (PYR/DMSO), MLKL” value [18] was 0.27, the “Log2 (PYR/DMSO)” value [19] was -0.03 and the “Log2 (PYR/DMSO)” value [20] was -0.05. For the same compound, the “Log2 (PYR/DMSO), MSI2” value [21] was -0.17, the “Log2 (PYR/DMSO)” value [22] was 0.19 and the “Log2 (PYR/DMSO)” value [23] was 0.21. The “Log2 (PYR/DMSO)” value [24] was -0.03, the “Log2 (PYR/DMSO)” value [25] was 0.21 and the “Log2 (PYR/DMSO)” value [26] was -0.04. For the same compound, the “Log2 (PYR/DMSO)” value [27] was 0.18, the “Log2 (PYR/DMSO)” value [28] was 0.14 and the “Log2 (PYR/DMSO)” value [29] was -0.04. For the same compound, the “Log2 (PYR/DMSO)” value [30] was 0.18.
